Entries after “also recorded” stand apart in the source; their conditions may differ. Read-outs that look alike come from different tables or passages of the source.
Tests used:
[1] = test system: TNBS-induced inflammation; type: in vivo, rat; conditions: for suppression of contractile response, with sub-threshold dose of TNBS: osmotic pump plus TNBS 30 mg/kg, compared with TNBS 130 mg/kg
Procedure: (§1) Muscle bath experiments. Pure circular muscle strips (2 mm×10 mm) are prepared from resected human colon segments. The strips are mounted in 5 ml baths filled with carbonated Krebs solution (in mM: 118 NaCl, 4.7 KCl, 2.5 CaCl2, 1 NaH2PO4, 1-2 MgCl2, 11 D-glucose, and 25 NaHCO3) at 37° C. (Siebenlist et al., 1994; Barnes and Karin, 1997). The muscle strips are equilibrated for 1 h at 1 g tension and then stretched until maximal response is obtained to 10^−4 m ACh. The bathing solution is replaced every 15 min. Contractions are measured by force transducers and analyzed by DATAQ (Akron, Ohio) software.
(§2) Vertebrate Animals. Sprague-Dawley rats were used. For tissue harvesting, the rats were anesthetized with 5% isoflurame in 100% oxygen for 5 to 7 minutes followed by i.p. injection of 50 mg/kg ketamine.
(§3) Osmotic pumps were implanted under anesthesia as discussed above. Lateral surface of left back were shaven and cleaned with betadine. A 2 cm incision was made in the skin and subcutaneous facia and muscle separated. The micro-osmotic pump were implanted intramuscularly and the incision was closed.
Colonic inflammation was induced by intraluminal injection of 30 mg/kg or 130-mg/kg trinitrobenzene sulfonic acid (TNBS) under anesthesia, as described above.

[2] = test system: rat middle colon muscle strips; assay: Osmotic pump administration in rats, contractile response of colon muscle strips; type: in vivo; conditions: systemic administration by osmotic pump for 3 days
Procedure: as §1, §2, §3

α1C1b promoter = α1C1b promoter luciferase reporter activity in HCCSMC; type: cell-based, human; conditions: for α1C1b promoter reporter (luciferase) activity: substance by itself; for effect on enhancement of α1C1b promoter activity by VIP: with VIP
Procedure: Transient cell transfections and luciferase activity. FuGENE 6 (Roche, Mannheim, Germany) is used to transfect luciferase-expressing pGL2 constructs in HCCSMC. The cells in passage 4 are seeded into 12-well plates (Costar, Acton, Mass.) and grown to 70% to 80% confluency. Transfections are carried out by incubation of cells in each well with 1.5 μl of FuGENE 6, 0.5 μg of pGL2 construct, and 0.125 μg of pSEAP2 Control Vector (BD Biosciences Clontech, Palo Alto, Calif.) for 24 h as per manufacturer's instructions. The pSEAP2 Control Vector is co-transfected for normalization of data. The transfected cells were treated with stimulus or medium control and harvested after 24 hours. Twenty μl of the supernatant of the cell lysates are taken for the measurement of luciferase activity by a luminometer (Promega, Madison, Wis.). The SEAP activity is measured with a Clontech SEAP detection kit by following the manufacturer's instructions.
Promoter constructs, 5′-deletions, and site-directed mutagenesis. The promoter constructs of hα1c1b are prepared by PCR amplification of human genomic DNA (Roche, Indianapolis, Ind.) and digested partially with Hind III (Promega, Madison, Wis.) using the FailSafe PCR kit (Epicentre, Madison, Wis.). The PCR product is subcloned into pDrive Cloning Vector with the PCR Cloning^plus kit (Qiagen, Valencia, Calif.) and SURE 2 supercompetent cells (Stratagene, La Jolla, Calif.) and subsequently transferred to the luciferase expression plasmid pGL2-Basic Vector (Promega, Madison, Wis.). The deletion constructs are made using the full length promoter construct as a template in PCR reactions. The same methods and kits are used to subclone the sequenced PCR products into the pDrive and pGL2 vector. The site-directed mutagenesis is carried out using QuikChange® II XL Site-Directed Mutagenesis Kit from Stratagene (La Jolla, Calif.), as per manufacturer's instructions.

Cav1.2a = conditions: neonatal rat ventricular myocytes; cited from earlier work
p65 subunit = assay: Nuclear abundance and binding of NF-κB p65 in HCCSMC; type: cell-based, human
Procedure: Cytoplasmic and nuclear protein, and RNA extraction: Cytoplasmic and nuclear proteins were prepared as described earlier by Shi et al. Briefly, the cells were washed twice with phosphate-buffered saline solution and then with buffer A (in mM: 10 HEPES, 1.5 MgCl2, 10 KCl, 0.5 dithiothreitol, 0.5 phenylmethylsulfrenyl fluoride [PMSF]; 10 ng/mL leupeptin, and 10 ng/mL aprotinin). The cells were resuspended in 25 μL of buffer A containing 0.25% NP-40 and incubated at 4° C. for 10 minutes. After centrifugation at 12,000 g for 10 minutes, the supernatant was collected as cytoplasmic extract. The nuclear pellet was resuspended in 20 μL of buffer C (in mM: 20 HEPES, […], 1.5 MgCl2, 0.2 ethylenediaimetetraacetic acid (EDTA), 0.5 DTT, 0.5 PMSF; 24% glycerol, 10 ng/mL leupeptin, and 10 ng/mL aprotinin) and incubated on ice with frequent vortexing for 15 minutes. The samples were centrifuged at 14,000 g for 10 minutes, and the supernatant (nuclear extract) was transferred to a fresh tube with 5 volumes of buffer D (in mM: 20 HEPES, 0.2 EDTA, 50 KCl, 0.5 DTT, 0.5 PMSF; 20% glycerol, 10 ng/mL leupeptin, and 10 ng/mL aprotinin). The protein concentration was determined by using the Bio-Rad assay kit (Bio-Rad Laboratories, Hercules, Calif.).
Electrophoretic mobility shift assay. […]

[3] = test system: human colonic circular muscle strips; assay: Muscle bath: contractile response of human colonic circular muscle strips; type: cell-based
Procedure: as §1
The protocol for transfection of sense and antisense oligonucleotides in freshly obtained muscle strips was similar to that in HCCSMC. The circular muscle layer was isolated from the fall thickness human colon, and sliced into 2 mm×10 mm muscle strips. The strips were incubated in RPMI 1640 without serum. The sense and antisense oligonucleotides (10 μM) were added into the medium for 24 h before incubation with 20 ng/mL TNFα for 24 h.

CRE1 and CRE2 = assay: Oligonucleotide agarose conjugate pull-down of CREB; type: cell-based, human; conditions: with VIP, FIG. 10
[4] = test system: α1C subunit of L-type Ca^2+ channels; assay: Q-PCR of α1C mRNA expression in HCCSMC; type: cell-based, human; conditions: for induction of α1C mRNA expression: HCCSMC
Description: (§4) Primary cultures of HCCSMC: Human tissue was obtained from the descending and sigmoid colons with approval of the University of Texas Medical Branch Institutional Review Board from disease free margins of resected segments from patients undergoing surgery for colon cancer. The circular muscle layer was separated from the taenia coli and lamina propria with a tissue slicer. The circular muscle layer was collected in ice-cold HEPES buffer (in mM: 120 NaCl, 2.6 KH2S04, 4 KCl, 2 CaCl2, 0.6 MgCl2, 25 HEPES, 14 glucose and 2.1% essential amino acid mixture, pH 7.4). Two successive digestions with papain and collagenase, as described previously by Shi and Sarna, were used to disperse smooth muscle cells. The cells were cultured in RPMI 1640 (Gibco/Invitrogen, Carlsbad, Calif.) supplemented with 10% fetal bovine serum in the presence of 100 units/mL of penicillin G, 100 μg/mL of streptomycin sulfate and 0.25 μg/mL of amphoteracin B. The culture medium was changed every three days. Cells in passages 3 to 5 were used in all experiments. All cells were cultured in serum-free medium for at least 15 h prior to experiments to eliminate the possible effects of growth factors. […] The cultures of colonic smooth muscle cells retain their contractile phenotype. Each experiment used cells or muscle strips from at least three different subjects.
Total RNA was extracted from cells using the Qiagen RNeasy kit (Qiagen, Valencia, Calif.) by following the manufacturer's protocol. The cDNAs were made using the Superscript First-Strand Synthesis System (Invitrogen, Carlsbad, Calif.).
Quantitive real-time-polymerase chain reaction (Q-PCR). Q-PCR assay is employed to determine gene expression using TaqMan technology on Applied Biosystems 7000 sequence detection system (UTMB Real-time PCR Core Facility). Applied Biosystems Assays-By-Design containing a 20× assay mix of primers and TaqMan MGB probes (FAMTM dye-labeled) are used for a target gene and the endogenous control, human 18s RNA. These assays were designed using primers that span exon-exon junctions so as not to detect genomic DNA. All primer and probe sequences were searched against the Celera data base to confirm specificity. The primer and probe sequences used were as follows: human Cav1.2 channel oα1C intermediate form (Cav1.2b) probe spanning exon 1b and exon 2, […] (SEQ ID NO:4): forward primer, […] (SEQ ID NO:5): reverse primer, […] (SEQ ID NO:6). Human Cav1.2 channel α1C long form (Cav1.2a) probe spanning exon 1a and exon 2: […] (SEQ ID NO:7): forward primer, […] (SEQ ID NO:8): reverse primer. […] (SEQ ID NO:6).

[5] = test system: α1C subunit of L-type Ca^2+ channels; assay: α1C protein expression (Western immunoblotting); type: cell-based, human; conditions: muscle strip tissue, FIG. 14 top
Description: as §4
Western immunoblotting. Each lane is loaded with 10 μg protein and size-separated on a 10% SDS polyacrylamide gel. After blotting, the nitrocellulose membranes are blocked with 10% non-fat dried milk at 4° C. overnight. The blots are incubated with appropriate dilution of the antibody at 4° C. overnight and appropriate dilution of designated secondary antibody at room temperature for 1 h. β-actin is used as internal control.

(p-chloro-D-Phe^6, Leu^17)-VIP
suppression of contractile response, with sub-threshold dose of TNBS ([1]; listed as VIP receptor antagonist): increased the suppression of contractile response | suppression of contractile response, with sub-threshold dose of TNBS ([1]; listed as VIP/PACAP receptor antagonist): enhanced the suppression of contractility | contractile response to ACh, antagonist by itself ([1]; osmotic pump, no TNBS, FIG. 15): suppressed the contractile response | diarrhea ([1]; rat, in vivo): did not develop diarrhea | contractile response of rat colon muscle strips to ACh [2]: suppressed the contractile response

Oc1ccc(-c2nc(-c3ccncc3)c(-c3ccc(F)cc3)[nH]2)cc1 [SB202190]
α1C1b promoter reporter (luciferase) activity (α1C1b promoter): little effect | effect on enhancement of α1C1b promoter activity by VIP (α1C1b promoter): somewhat blunt the enhancement

CC(C)NCC(O)c1ccc(O)c(O)c1 (centres unmarked) [isoproterenol]
Cav1.2a mRNA (Cav1.2a): transient increase in Cav1.2a mRNA | increase in peak current density (Cav1.2a): about 40%

COc1cccc(-c2cc(=O)c3ccccc3o2)c1N [PD98059]
α1C1b promoter reporter (luciferase) activity (α1C1b promoter): little effect | effect on enhancement of α1C1b promoter activity by VIP (α1C1b promoter): little effect

TNFα
nuclear abundance and binding of p65 (p65 subunit): enhanced the nuclear abundance and binding of p65 | α1C1b promoter reporter (luciferase) activity (α1C1b promoter): reduced luciferase activity; also recorded: suppressed it | contractile response of circular muscle strips to ACh ([3]; strips incubated 24 h, organ bath): suppresses their contractile response to ACh; also recorded: suppressed the contractile response to ACh; also recorded: suppression of contractility | effect on CREB binding after VIP treatment (CRE1 and CRE2): abrogated; also recorded: reduces the binding after VIP treatment

O=S(=O)(NCCNC/C=C/c1ccc(Br)cc1)c1cccc2cnccc12 [H-89]
effect on α1C mRNA on its own ([4]; FIG. 4): no effect on its own | effect on VIP enhancement of α1C mRNA ([4]; FIG. 4, with VIP): partially inhibited the effect of VIP

NC[C@H](O)c1ccc(O)c(O)c1 [norepinephrine]
induction of α1C mRNA expression [4]: induced the expression of α1C mRNA

pituitary adenylate cyclase-activating peptide [PACAP]
induction of α1C mRNA expression [4]: induced expression | effect on suppression of contractility due to TNBS-induced inflammation ([1]; intact rat model, treatment through osmotic pumps, expected): partially inhibit the suppression of contractility | effect on suppression of α1C1b promoter activity by TNFα (α1C1b promoter; with TNFα): significantly blocked this reduction | effect on TNFα suppression of contractile response to ACh ([3]; muscle strips, treatment before/with TNFα): significantly reduces the suppression | effect on TNFα suppression of α1C protein [5]: minimized
